From patent US20200080091A1, “Methods for Treating Obesity of a Subject Suffering from Obesity” (NAKAJIMA Toshihiro, priority 2012, published 2020)

Key:
3T3-L1 cells = assay: adipocyte differentiation induction of 3T3-L1 cells (Oil Red O staining); type: cell-based, mice; conditions: 200 μmol siRNA introduced by Lipofectamine2000 two days before induction of differentiation; compared to a control; FIG. 4
Experimental: 3T3-L1 cells, which are preadipocytes of mice, were cultivated in Dulbecco's Modified Eagle Medium (DMEM; High Glucose) containing 10% fetal bovine serum (FBS) for 3 days after reaching confluent state. 500 μM of isobutyl-methylxanthine (IBMX), 1 μM of Dexamethasone, and 5 μg/mL of Insulin were added to induce differentiation. At the same time, 10 μM of LS-102 (ubiquitination activity inhibitor of synoviolin) or DMSO was added. After cultivation for 3 days, the medium was replaced with medium containing 4 μg/mL of Insulin and 10 μM of LS-102 or DMSO was added. After cultivation for 3 days, the medium was replaced with DMEM (High Glucose) containing 10% FBS to cultivate for 3 days. For siRNA, 200 μmol of siRNA Syno770 (sense strand consists of the following SEQ ID NO: 2) was introduced by the Lipofectamine2000 two days before induction of differentiation.
After the cultivated 3T3-L1 cells were washed with PBS(−) (Phosphate Buffered Saline solution from which magnesium and calcium had been eliminated), the cells were fixed by 10% formalin. The cells were washed with the PBS(−) to be replaced with 60% isopropanol. After staining for 20 minutes with 18 mg/ml of Oil Red 0 (solvent Isopropanol), the cells were washed with 60% isopropanol and PBS(−) and observed by a microscope.

synoviolin protein = target: T1, synoviolin protein (Homo sapiens, UniProt Q86TM6); conditions: disclosed in Japanese Patent Application Publication No. 2008-74753; cited from earlier work
T1 construct: MBP-Syno ΔTM-His means synoviolin in which transmembrane domain has been deleted
T1 sequence (Q86TM6 246-617 limits assumed): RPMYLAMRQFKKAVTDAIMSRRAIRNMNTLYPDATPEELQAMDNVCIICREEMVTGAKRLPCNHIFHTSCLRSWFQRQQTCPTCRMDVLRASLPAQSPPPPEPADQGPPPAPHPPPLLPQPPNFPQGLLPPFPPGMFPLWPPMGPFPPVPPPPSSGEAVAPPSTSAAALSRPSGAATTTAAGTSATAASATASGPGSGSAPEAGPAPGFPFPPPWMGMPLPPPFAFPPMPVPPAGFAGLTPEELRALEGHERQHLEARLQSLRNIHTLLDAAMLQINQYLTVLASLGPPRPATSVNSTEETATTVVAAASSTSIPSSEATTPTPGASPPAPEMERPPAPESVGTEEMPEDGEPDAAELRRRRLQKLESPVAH

| Compound | differentiation of adipose cells (3T3-L1 cells) | self-ubiquitination of synoviolin protein (synoviolin protein) |
| --- | --- | --- |
| 5′ -GCUGUGACAGAUGCCAUCA-3′ [siRNA Syno770] | differentiation has been suppressed | – |
| CC1=CC(=O)c2c(O)cccc2C1=O [plumbagin, 2-methyl-5-hydroxy-1,4-naphthoquinone] | – | inhibit |
| O=c1c(O)c(-c2ccc(O)c(O)c2)oc2cc(O)cc(O)c12 [quercetin, 2-(3,4-dihydroxyphenyl)-3,5,7-trihydroxy-4H-1-benzopyrano-4-on] | – | inhibit |
